One series relates to Leishmania infantum. Briefly: Antileishmanial activity against […] stage of Leishmania infantum MHOM/BR/1974/PP75 infected in human THP-1 cells assessed as parasite growth inhibition incubated for 72 hrs by microplate reader analysis. Type of series: functional, organism-based. As to conditions: MHOM/BR/1974/PP75, THP-1, 72 h.
Series [1] has as its system Leishmania donovani. Briefly: Antileishmanial activity against amastigote form of Leishmania donovani infected in HepG2 cells assessed as inhibition of parasite growth incubated for 72 hrs by Alamar blue staining based assay. Type of series: functional, organism-based. As to conditions: HepG2, 72 h. A general note: Resazurin is reduced to fluorescent resorufin, in cell work by metabolically active cells.

Series [2] in a line: Cytotoxicity against human HepG2 cells assessed as reduction in cell viability incubated for 4 days by celltiter-glo assay. The class given is toxicity, cell-based. The note with it: time 4 day. For orientation: In ATP-based viability assays light output follows the ATP content of the culture.
Series [3] is described as follows: Selectivity index, ratio of CC50 for cytotoxicity against human THP-1 cells assessed as reduction in cell viability to IC50 for antileishmanial activity against […] stage of Leishmania infantum MHOM/BR/1974/PP75 infected in human THP-1 cells assessed as parasite growth inhibition. Type of series: toxicity, cell-based. The note with it: read-out: Ratio CC50/IC50.

Another series concerns Leishmania braziliensis. Briefly: Antileishmanial activity against […] stage of Leishmania braziliensis MHOM/BR/75/M2904 infected in human THP-1 cells assessed as parasite growth inhibition incubated for 72 hrs by microplate reader analysis. Type of series: functional, organism-based. The note with it: MHOM/BR/75/M2904, THP-1, 72 h.
Series [4] can be described thus: Cytotoxicity against human THP-1 cells assessed as reduction in cell viability incubated for 72 hrs by alamarblue staining based analysis. Type of series: toxicity.
The subject of another series is Trypanosoma cruzi. Put plainly: Antitrypanosomal activity against Trypanosoma cruzi Tulahuen infected in mouse L929 cells assessed as parasite growth inhibition incubated for 96 hrs. Type of series: functional, organism-based. The note with it: L929, 96 h.
Series [5] concerns Leishmania donovani. Briefly: Inhibition of Leishmania donovani at 10 uM GSK-3 by kinase glo assay relative to control.
Series [6] in a line: Selectivity index, ratio of CC50 for cytotoxicity against human THP-1 cells assessed as reduction in cell viability to IC50 for antileishmanial activity against […] stage of Leishmania braziliensis MHOM/BR/75/M2904 infected in human THP-1 cells assessed as parasite growth inhibition. The class given is toxicity, cell-based. As to conditions: read-out: Ratio CC50/IC50.

The results in this text go back to ChEMBL document CHEMBL5370527, “Hit-to-lead optimization of a pyrazinylpiperazine series against Leishmania infantum and Leishmania braziliensis” (Eur J Med Chem, 2023).

Usually IC50 stands for the concentration that inhibits the measured activity by half. Usually CC50 stands for the concentration at which the toxic effect on the cells reaches its halfway point. As a reminder, the inhibition is the relative decrease from the control value, in per cent. High values mean strong suppression, low ones little suppression.

In the case of `O=C(c1ccc(O)c(Cl)c1)N1CCN(c2cnccn2)CC1`, the IC50 in the series with Leishmania infantum was 11.9 µM; in the series on Leishmania donovani [1], 310 nM; with Leishmania braziliensis, 11.7 µM; in the series on Trypanosoma cruzi, greater than 175 µM. For the same compound, the CC50 at 96 h in series [2] was greater than 100 µM. Also, the selectivity ratio in [3] and in [6] was 46 throughout. Further, the CC50 at 72 h in [4] came out at 0.542 mM. This compound showed an inhibition in the series on Leishmania donovani [5] of 1.65%.
Turning to `O=C(c1cccc(O)c1)N1CCN(c2cnccn2)CC1`, the IC50 in the series on Leishmania infantum was 25.3 µM; in the series on Leishmania braziliensis, 14.1 µM; with Trypanosoma cruzi, greater than 175 µM. The values for the selectivity ratio in series [3] and in series [6] were 87 and 156, respectively. Besides, the CC50 at 72 h in series [4] came to 2.2 mM.
Take `O=C(c1ccccc1)N1CCN(c2cnccn2)CC1`: the figures for the IC50 in the series with Leishmania infantum, in the series on Leishmania braziliensis and in the series with Trypanosoma cruzi were 63.1 µM, 24.7 µM and greater than 175 µM, respectively. Also, the selectivity ratio in [3] is 11; in series [6], 29. The CC50 at 72 h in series [4] stood at 0.716 mM.
For the compound `O=C(c1ccc([N+](=O)[O-])cc1)N1CCN(c2cnccn2)CC1`, the results for the IC50 in the series on Leishmania infantum, in the series with Leishmania braziliensis and in the series with Trypanosoma cruzi were 221 µM, 161 µM and greater than 175 µM, respectively. The selectivity ratio in series [3] was 13; in [6], 17. For the same compound, the CC50 at 72 h in [4] came out at 2.81 mM.
On to `COc1ccc(C(=O)N2CCN(c3cnccn3)CC2)cc1`, for which the IC50 is 4.5 µM with Leishmania infantum, 10.1 µM with Leishmania braziliensis and greater than 175 µM with Trypanosoma cruzi. Moreover, the selectivity ratio is 422 in series [3] and 188 in [6]. Also, the CC50 at 72 h in series [4] turned out to be 1.9 mM.
As to `O=C(c1ccc(OC(F)(F)F)cc1)N1CCN(c2cnccn2)CC1`, the IC50 was 7.5 µM in the series on Leishmania infantum, 17.5 µM with Leishmania braziliensis and greater than 175 µM in the series on Trypanosoma cruzi. In addition, the selectivity ratio in series [3] was 115; in series [6], 49. Also, the CC50 at 72 h in series [4] was 0.865 mM.
As for `O=C(c1cccc(Cl)c1)N1CCN(c2cnccn2)CC1`, the IC50 in the series with Leishmania infantum is 113 µM; with Leishmania braziliensis, 93.4 µM; in the series with Trypanosoma cruzi, greater than 175 µM. The selectivity ratio in series [3] turned out to be 6; in series [6] it was 7. Also, the CC50 at 72 h in [4] came to 0.662 mM.
Regarding `COc1cc(F)ccc1C(=O)N1CCN(c2cnccn2)CC1`, the IC50 is 34.3 µM with Leishmania infantum, 13.1 µM in the series on Leishmania braziliensis and greater than 175 µM in the series on Trypanosoma cruzi. For the same compound, the selectivity ratio in series [3] amounted to 40; in series [6], 104. Besides, the CC50 at 72 h in [4] came out at 1.36 mM.
